SMILES strings stand for the structures.

The EC50 is the midpoint of the concentration-response curve. Read a low EC50 as a more potent agent.

The test system of the assay is THP-1 Lucia ISG cells. The experiment in a line: ISRE-luciferase assay (ISG-LUC activation). The format is cell-based. The note with it: Homo sapiens, THP1-Lucia ISG, 24 hours, luciferase reporter. The method, then: ISRE-luciferase assay. THP-1 Lucia ISG cells were resuspended in low-serum growth media (2% FBS) at a density of 5×10^5 cells/ml and treated with test article or vehicle (DMSO). 50 μL of cells were seeded into each well of a 384-well white greiner plates and incubated for 24 hours. To evaluate expression of the luciferase reporter, 30 μl of Quanti-luc (Invivogen) detection reagent was added to each well and luminescence was read using an Envision plate reader (Perkin Elmer) set with an integration time of 0.1 seconds. For each cell type, luminescence signals for test article samples were normalized to vehicle-treated samples and reported as relative light units (RLU).
In turn, `O=C(Nc1cc(CCCc2cc(NC(=O)c3ccc(-n4ccnc4)nn3)c(C(=O)O)cc2F)c(F)cc1C(=O)O)c1ccc(-n2ccnc2)nn1` [Compound 3, 4,4′-(propane-1,3-diyl)bis(2-(6-(1H-imidazol-1-yl)pyridazine-3-carbox-amido)-5-fluorobenzoic acid)] had an EC50 of 50 to 500 nM.
As for `O=C(Nc1cc(CCOc2cc(NC(=O)c3ccc(-c4cn[nH]c4)nn3)c(C(=O)O)cc2F)c(F)cc1C(=O)O)c1ccc(-c2cn[nH]c2)nn1` [Compound 4, 2-(6-(1H-pyrazol-4-yl)pyridazine-3-carboxamido)-4-(5-(6-(1H-pyrazol-4-yl)pyridazine-3-carboxamido)-4-carboxy-2-fluorophenethoxy)-5-fluorobenzoic acid], the concentration giving a half-maximal response (EC50) lay within 50 to 500 nM.
In the case of `CC(CCOc1cc(NC(=O)c2ccc(-n3ccnc3)nn2)c(C(=O)O)cc1F)Oc1cc(NC(=O)c2ccc(-n3ccnc3)nn2)c(C(=O)O)cc1F` (stereo not drawn) [Compound 5, 4,4′-(butane-1,3-diylbis(oxy))bis(2-(6-(1H-imidazol-1-yl)pyridazine-3-carboxamido)-5-fluorobenzoic acid)] it was 50 to 500 nM; in that of `COc1cc(C(=O)O)c(NC(=O)c2ccc(-n3ccnc3)nn2)cc1OCCc1cc(C(=O)O)c(NC(=O)c2ccc3nnnn3n2)cc1Cl` [Compound 6, 2-(6-(1H-imidazol-1-yl)pyridazine-3-carboxamido)-4-(5-carboxy-2-chloro-4-(tetrazolo[1,5-b]pyridazine-6-carboxamido)phenethoxy)-5-methoxybenzoic acid], 50 to 500 nM.
Turning to `O=c1oc(-c2ccc(-n3ccnc3)nn2)nc2c(F)c(OCCCCOc3c(F)cc4c(=O)oc(-c5ccc(-n6ccnc6)nn5)nc4c3F)c(F)cc12` [Compound 9, 7,7′-(butane-1,4-diylbis(oxy))bis(2-(6-(1H-imidazol-1-yl)pyridazin-3-yl)-6,8-difluoro-4H-benzo[d][1,3]oxazin-4-one)], the 50% effective concentration (EC50) fell in the range of 500 to 5000 nM.
Turning to `O=C(Nc1cc(OCCCOc2cc(C(=O)O)c(NC(=O)c3ccc(-n4ccnc4)nn3)cc2F)c(F)cc1C(=O)O)c1ccc(-n2ccnc2)nn1` [Compound 10, 2-(6-(1H-imidazol-1-yl)pyridazine-3-carboxamido)-5-(3-(5-(6-(1H-imidazol-1-yl)pyridazine-3-carboxamido)-4-carboxy-2-fluorophenoxy)propoxy)-4-fluoro-benzoic acid], the EC50 lay within 50 to 500 nM.
Regarding `O=C(Nc1cc(CCCc2ccc(NC(=O)c3ccc4nnnn4n3)c(C(=O)O)c2)ccc1C(=O)O)c1ccc2nnnn2n1` [Compound 13], the concentration giving a half-maximal response (EC50) was in the range of 500 to 5000 nM.
Compound `O=C(Nc1cc(CCCc2ccc(C(=O)O)c(NC(=O)c3ccc4nnnn4n3)c2)ccc1C(=O)O)c1ccc2nnnn2n1` [Compound 14] returned a concentration giving a half-maximal response (EC50) of 500 to 5000 nM.
In the case of `O=C(Nc1cc(OCCCCOc2cc(NC(=O)c3ccc(-n4ccnc4)nn3)c(C(=O)O)cc2F)ccc1C(=O)O)c1ccc(-n2ccnc2)nn1` [Compound 19], the concentration for a half-maximal effect (EC50) fell in the range of 500 to 5000 nM.
Regarding `COC(=O)c1cc(Cl)c(OCCCCOc2cc(NC(=O)c3ccc(-n4ccnc4)nn3)c(C(=O)OC)cc2Cl)cc1NC(=O)c1ccc(-n2ccnc2)nn1` [Compound 23], the EC50 was below 50 nM.
`O=C(Nc1cc(OCCOc2cc(C(=O)O)c(NC(=O)c3ccc4nnnn4n3)cc2F)ccc1C(=O)O)c1ccc2nnnn2n1` [Compound 26] returned an EC50 above 5000 nM.
In the case of `O=C(Nc1cc(OCCCOc2cc(C(=O)O)c(NC(=O)c3ccc4nnnn4n3)cc2F)c(F)cc1C(=O)O)c1ccc2nnnn2n1` [Compound 33] it was above 5000 nM; in that of `COC(=O)c1cc(F)c(OCCCCOc2cc(NC(=O)c3ccc(-n4ccnc4)nn3)c(C(=O)OC)cc2F)cc1NC(=O)c1ccc(-n2ccnc2)nn1` [Compound 34], above 5000 nM; in that of `O=C(Nc1cc(OCCCCOc2ccc(C(=O)O)c(NC(=O)c3ccc(-n4ccnc4)nn3)c2)ccc1C(=O)O)c1ccc(O)nn1` [Compound 35], above 5000 nM.
Regarding `COC(=O)c1cc(F)c(OCCCCOc2c(F)cc(C(=O)OC)c(NC(=O)c3ccc(-n4ccnc4)nn3)c2F)c(F)c1NC(=O)c1ccc(-n2ccnc2)nn1` [Compound 36], the EC50 was below 50 nM.
